Measurements taken from US6444612B1, “Use of 5-amino-pyrazol-derivatives for combating micro-organisms” (Bayer Aktiengesellschaft, priority 1998, dated 2002).
One block for each compound: values may come before it.

Legend:
[1] = test system: Erysiphe graminis f.sp. tritici; experiment: Erysiphe test (wheat)/protective; type: in vivo; settings: protective, application rate 250 g/ha, evaluation 7 days after inoculation, 100% = no infection
Description: Erysiphe Test (Wheat)/Protective
(§1) Solvent: 25 parts by weight of N,N-dimethylacetamide
Emulsifier: 0.6 part by weight of alkylaryl polyglycol ether
(§2) To produce a suitable preparation of active compound, 1 part by weight of active compound is mixed with the stated amounts of solvent and emulsifier, and the concentrate is diluted with water to the desired concentration.
To test for protective activity, young plants are sprayed with the preparation of active compound at the stated application rate.
After the spray coating has dried on, the plants are dusted with spores of Erysiphe graminis f.sp. tritici.
The plants are placed in a greenhouse at a temperature of about 20° C. and a relative atmospheric humidity of about 80% to promote the development of mildew pustules.
(§3) Evaluation is carried out 7 days after the inoculation. 0% means an efficacy which corresponds to that of the control, whereas an efficacy of 100% means that no infection is observed.

[2] = test system: Pyrenophora teres; experiment: Pyrenophora teres test (barley)/curative; type: in vivo; settings: curative, application rate 250 g/ha, evaluation 7 days after inoculation, 100% = no infection
Description: Pyrenophora Teres Test (Barley)/Curative
as §1
Emulsifier: 0.6 parts by weight of alkylaryl polyglycol ether
as §2
To test for curative activity, young plants are sprayed with a conidia suspension of Pyrenophora teres. The plants remain in an incubation cabin at 20° C. and 100% relative atmospheric humidity for 48 hours. The plants are then sprayed with the preparation of active compound at the stated application rate.
The plants are placed in a greenhouse at a temperature of about 20° C. and a relative atmospheric humidity of about 80%.
as §3

[3] = test system: Podosphaera leucotricha; experiment: Podosphaera test (apple)/protective; type: in vivo; settings: protective, application rate 100 g/ha, evaluation 10 days after inoculation, 100% = no infection
Description: Podosphaera Test (Apple)/Protective
(§4) Solvent: 47 parts by weight of acetone
(§5) Emulsifier: 3 parts by weight of alkylaryl polyglycol ether
as §2
(§6) To test for protective activity, young plants are sprayed with the preparation of active compound at the stated application rate. After the spray coating has dried on, the plants are inoculated with an aqueous spore suspension of the apple mildew pathogen Podosphaera leucotricha. The plants are then placed in a greenhouse at about 23° C. and a relative atmospheric humidity of about 70%.
Evaluation is carried out 10 days after the inoculation. 0% means an efficacy which corresponds to that of the control, whereas an efficacy of 100% means that no infection is observed.

[4] = test system: Sphaerotheca fuliginea; experiment: Sphaerotheca test (cucumber)/protective; type: in vivo; settings: protective, application rate 100 g/ha, evaluation 10 days after inoculation, 100% = no infection
Description: Sphaerotheca Test (Cucumber)/Protective
as §4, §5, §2
as §6, with “Sphaerotheca fuliginea.” for “the apple mildew pathogen Podosphaera leucotricha.”
Evalution is carried out 10 days after the inoculation. 0% means an efficacy which corresponds to that of the control, whereas an efficacy of 100% means that no infection is observed.

melting point: 112 to 113 °C
SMILES: CCOC(=O)c1c(CC)nn(C)c1NC(=O)Cc1ccc(OC)cc1 [Example 1, 4-ethoxycarbonyl-3-ethyl-5-(4-methoxyphenylacetyl)-amino-1-methylpyrazole]

melting point: 167 to 168 °C
SMILES: CCc1nn(C)c(NC(=O)Cc2ccc(Br)cc2)c1Cl [Example 5, 5-(4-bromophenylacetyl)-amino-4-chloro-3-ethyl-1-methylpyrazole]

SMILES: CCOC(=O)c1c(CC)nn(C)c1NC(=O)Cc1cccc(Oc2ccc(Cl)cc2)c1 [drawing 282]
Efficacy in % [1]: 100%

SMILES: CCOC(=O)c1c(CC)nn(C)c1NC(=O)Cc1cccc(Oc2ccc(Cl)cc2)c1 [drawing 283]
Efficacy in % [2]: 100%

SMILES: CCOC(=O)c1c(CC)nn(C)c1NC(=O)Cc1cccc(Oc2ccc(OC(F)(F)F)cc2)c1 [drawing 284]
Efficacy in % [3]: 92%

SMILES: CCOC(=O)c1c(CC)nn(C)c1NC(=O)Cc1ccc(-c2ccc(OC(F)(F)F)cc2)cc1 [drawing 285]
Efficacy in % [3]: 100%

SMILES: CCc1nn(C)c(NC(=O)Cc2ccc(-c3ccc(OC(F)(F)F)cc3)cc2)c1Cl [drawing 286]
Efficacy in % [3]: 100%

SMILES: CCOC(=O)c1c(CC)nn(C)c1NC(=O)Cc1ccc(-c2ccc(OC(F)(F)F)cc2)cc1 [drawing 287]
Efficacy in % [4]: 100%

SMILES: CCc1nn(C)c(NC(=O)Cc2ccc(-c3ccc(OC(F)(F)F)cc3)cc2)c1Cl [drawing 288]
Efficacy in % [4]: 100%
